The values below come from paper PMC10415494, “Ga(III) pyridinecarboxylate complexes: potential analogues of the second generation of therapeutic Ga(III) complexes?” (Journal of Biological Inorganic Chemistry, 2023).

Values after ≈ are worked out from the molar mass of the structure shown. Like-named read-outs stand apart in the source and are kept apart here.

Data set [1] deals with human dermal fibroblasts (HDF). Put plainly: MTS antiproliferative assay (non-cancer cells). The protocol:
(§1) Cell culture the cell lines A2058 (human metastatic melanoma), BLM (human metastatic melanoma), HCT116 (human colorectal carcinoma), HeLa (human cervical adenocarcinoma), Jurkat (human leukaemic T cell lymphoma). […] Cells were maintained in standard conditions with an atmosphere containing 5% CO2 at 37 °C.
(§2) The antiproliferative activity of Ga(III) complexes GaPic, GaDpic, GaChel, GaCldpic, free ligands (HPic, H2Dpic, H2Chel, H2Cldpic) and cisplatin (cisPt) were evaluated by colorimetric microculture MTS (3-(4,5-dimethylthiazol-2-yl)-5-(3-carboxymethoxyphenyl)-2-(4-sulfophenyl)-2H tetrazolium) assay (Promega, Madison, WI, USA). Cancer and non-cancer cells were seeded at density 5 × 10^3 cells/well in 96-well polystyrene microplates. Twenty-four hours after cell seeding, different concentrations (1.0—100.0 µM) of the compounds were tested. After 72 h of incubation, 10 µL of MTS was added to each well. After an additional 2 h, cell proliferation was evaluated by measuring of absorbance at wavelength 490 nm using the automated Cytation™ 3 Cell Imaging Multi-Mode Reader (Biotek, Winooski, VT, USA). The absorbance of control wells was taken as 100%, and the results were expressed as a percent of untreated control. IC50 values were calculated from MTS analyses.

In data set [2] the test system is A2058 (human metastatic melanoma). The data set can be described thus: MTS antiproliferative assay. How it is done: as §1, §2
For data set [3], the system named is HCT116 (human colorectal carcinoma). Put plainly: MTS antiproliferative assay. How it is done: as §1, §2
The test system of data set [4] is HeLa (human cervical adenocarcinoma). Put plainly: MTS antiproliferative assay. How it is done:
as §1, §2
(Tetrazolium assays rely on reduction of a dye to a coloured formazan, in cell work by metabolically active cells.)

The subject of data set [5] is MDA-MB-231 (human mammary gland adenocarcinoma). Put plainly: MTS antiproliferative assay. How it is done: as §1, §2
The subject of data set [6] is Jurkat (human leukaemic T cell lymphoma). Put plainly: MTS antiproliferative assay. How it is done:
as §1, §2

Data set [7] deals with PaTu 8902 (human pancreatic adenocarcinoma). The data set can be described thus: MTS antiproliferative assay. The protocol:
as §1, §2

The subject of data set [8] is Microsporum gypseum (M. gypseum) CCM F-8342. Put plainly: Growth of filamentous fungi, macrodilution method on solidified PDA (colony diameter). Format: cell-based. As to conditions: Filamentous fungi; solidified potato-dextrose growth medium; read-out: IC50 M. gypseum. The protocol:
(§3) The antimicrobial activities of gallium(III) complexes GaPic, GaDpic, GaChel, GaCldpic, free ligands (HPic, H2Dpic, H2Chel, H2Cldpic) and positive controls (cefoxitin (C), ampicillin (A) and piperacillin (P)) were evaluated by macrodilution method using G^+ bacteria (Firmicutes) Staphylococcus aureus (S. aureus) CCM 3953 (Czech Collection of Microorganisms), G^− bacteria (γ-proteobacteria) Escherichia coli (E. coli) CCM 3988, Pseudomonas aeruginosa (P. aeruginosa) CCM 1959 (Czech Collection of Microorganisms) and the yeast Candida parapsilosis (C. parapsilosis) ATCC 22019 (American type culture collection). Cultures of bacteria (in Mueller–Hinton broth, MHB) and yeasts (in Sabouraud’s growth medium, SB) were incubated under shaking (250 rpm) at 37 °C. The growth of bacteria and yeasts was evaluated by measuring the absorbance of the growing cultures (A590) until the cultures reached the stationary growth phase. The effects of gallium(III) complexes on the growth of filamentous fungi Rhizopus oryzae (R. oryzae) CCM F-8284, Alternaria alternata (A. alternata) CCM F-128 and Microsporum gypseum (M. gypseum) CCM F-8342 (Czech Collection of Microorganisms) were observed by macrodilution method on solidified potato-dextrose growth medium (PDA). During culturing, the diameters of growing fungal colonies were measured at regular intervals. Briefly, the antimicrobial activity (bacteria and yeasts) gallium(III) complexes/ ligands were added to the microbial culture at the beginning of the cultivation-to the lag phase. Pure gallium(III) complexes/ligands were dissolved in DMSO. The final concentration of DMSO never exceeded 1.0 vol. % neither in control nor treated samples. Concentration of gallium(III) complexes used in experimental work for evaluation of antimicrobial activity was used in the range of 0.05–2 mM, for the free ligands in the range of 0.5–2.0 mM in all experiments. […] The IC50 values were evaluated from toxicity curves. All the obtained results of antimicrobial activity were compared to the activity of Ga(NO3)3.

In data set [9] the test system is Rhizopus oryzae (R. oryzae) CCM F-8284. Described as above. The note with it: solidified potato-dextrose growth medium; read-out: IC50 R. oryzae. Format: cell-based. How it is done:
as §3

The subject of data set [10] is Alternaria alternata (A. alternata) CCM F-128. The description is as above. It counts as cell-based. The note with it: Filamentous fungi; solidified potato-dextrose growth medium; read-out: IC50 A. alternata. How it is done:
as §3

Data set [11] is described as follows: Complex stability in biological testing medium by time-dependent 1H NMR. Format: physicochemical. The note with it: 300 K, over 96 h. The protocol: Nuclear magnetic resonance (NMR) data were collected on a Varian VNMRS 600 spectrometer operating at 599.87 MHz for ^1H. The concentration of all samples was approximately 3 mg/0.6 mL of 1% DMSO-d6/D2O. For comparison, the spectra of pure acids were also measured, while the pH of the solution of acids was adjusted to the same value as the solution of the complexes. The chemical shifts were referenced to the TSP (3-(trimethylsilyl)propionic-2,2,3,3-d4 acid sodium salt) peak (^1H NMR 0.00 ppm). The NMR data were recorded at 300 K, with chemical shifts δ reported in parts per million and coupling constants J in Hertz. All data were analysed using MestReNova 12.0.0 (2017) software. The stability in 1% DMSO-d6/D2O was determined for all samples. […]

In data set [12] the test system is Candida parapsilosis (C. parapsilosis) ATCC 22019. Put plainly: Antimicrobial activity, macrodilution method (yeast, growth by A590). It counts as cell-based. The note with it: Yeast; Sabouraud's growth medium, 37 °C; read-out: IC50 C. parapsilosis. How it is done:
as §3

The test system of data set [13] is Staphylococcus aureus (S. aureus) CCM 3953. The data set can be described thus: Antimicrobial activity, macrodilution method (growth by A590). As to conditions: for IC50: Bacteria, MHB, 37 °C, DMSO max 1.0 vol. %, read-out: IC50 S. aureus. It counts as cell-based. How it is done: as §3
In data set [14] the test system is Pseudomonas aeruginosa (P. aeruginosa) CCM 1959. The data set is described as above. As to conditions: for IC50: Bacteria, MHB, 37 °C, DMSO max 1.0 vol. %, read-out: IC50 P. aeruginosa. Format: cell-based. How it is done:
as §3

Data set [15] relates to Escherichia coli (E. coli) CCM 3988. The description is as above. It counts as cell-based. As to conditions: for IC50: Bacteria, MHB, 37 °C, DMSO max 1.0 vol. %, read-out: IC50 E. coli. The protocol:
as §3

The procedure of data set [16]:
The stock solution of HPic and H2Dpic was prepared by dissolving in demineralized water (c(ligand) = 0.02 M). The gallium(III) ion solution was prepared from anhydrous gallium(III) nitrate (c(Ga^3+) = 0.05 M) and was standardized by back titration of excess of EDTA with zinc(II). Decarbonated potassium hydroxide solution (approx. 0.2 M) was used as a titrant that was standardized by potassium hydrogen phthalate (c(KHP) = 0.1 M). Standard inert electrolyte of nitric acid was used in all titrations (c(HNO3) = 0.03 M, I(HNO3/KNO3) = 0.1 M). Potentiometric measurements were carried out using a TitroLine 7000 dosage system with a BlueLine combination electrode (SI Analytics) in a glass vessel (5 mL) thermostated at 25 ± 0.1 °C at an ionic strength I(KNO3) = 0.1 M. Inert atmosphere was ensured by a constant flow of a nitrogen gas. Precise calibration of the electrode was carried out by the titration of 0.03 M HNO3 with 0.2 M KOH in the range –log[H^+] = 1.8–12.0, with the pH-meter yielding E values. The relation between E and –log[H^+] is expressed by Eq. (1) where the term E^0 contains the standard potentials of the electrode and the contribution of inert ions to the liquid-junction potential. The value S corresponds to the Nernstian slope, the value of which should be close to the theoretical value, and j1[H^+] and j2[OH^–] = j2Kw/[H^+] are contributions of the H^+ and OH^– ions, respectively, to the liquid-junction potential. The pKw value was 13.78 in Eq. (1).1 E=E^0-S-logH^++j1H^++j2Kw/H^+
The parameters j1 and j2 cause deviation from linear dependence between E and –log[H^+] only in strongly acidic and strongly alkaline solutions. The picolinic and dipicolinic acid protonation constants were determined with ligand concentration 0.004 M. The stability constants in the Ga-HPic and Ga-H2Dpic binary system were determined by the ligand concentrations 0.004 and the Ga^3+ concentration was 0.004, 0.002 and 0.001 M in dependence on the ligand to metal ratio.
The protonation constants β110, β210 are the concentration constants and are defined by β110 = [HL]/ [H][L], β210 = [H2L]/ [H]^2[L] (pK2 = logβ110, pK1 = logβ210- logβ110); the stability constants are defined by βrqp = [HrLqMp]/[H]^r[L]^q[M]^p. The equilibrium constants were obtained by fitting the titration data with OPIUM [23]. The following hydrolysis constants were used for the calculations: βpr = [Mp(OH)r^3−r][H]^r/[M]^p; log β11 = − 2.74; log β12 = − 7.0; log β13 = − 11.96; log β14 = − 15.52 [24].

Regarding `N.N.[Cl][Pt][Cl]` [cisPt, cisplatin], the IC50 (as a rule, the concentration that inhibits the measured activity by half) is 40.1 ± 2.8 µM in data set [1] (read-out: Cytotoxic activity IC50 HDF, MTS, 72 h of incubation); 17.6 ± 1.2 µM in [2] (read-out: Cytotoxic activity IC50 A2058, MTS, 72 h of incubation); 7.4 ± 0.8 µM in [3] (read-out: Cytotoxic activity IC50 HCT116, MTS, 72 h of incubation); 35.4 ± 3.4 µM in data set [4] (read-out: Cytotoxic activity IC50 HeLa, MTS, 72 h of incubation); 7.1 ± 0.3 µM in data set [5] (read-out: Cytotoxic activity IC50 MDA-MB-231, MTS, 72 h of incubation); 6.3 ± 0.5 µM in [6] (read-out: Cytotoxic activity IC50 Jurkat, MTS, 72 h of incubation). Further, the IC50 in data set [7] (read-out: Cytotoxic activity IC50 PaTu 8902, MTS, 72 h of incubation) came to 12.9 ± 0.9 µM.
Consider `O.O.O.O.O.O.O=C([O-])c1cc(O)cc(C(=O)[O-])n1.O=C([O-])c1cc(O)cc(C(=O)[O-])n1.[Ga+3].[Ga+3].[OH-].[OH-]` [GaChel, [Ga(Chel)(H2O)(OH)]2·4H2O], for which the IC50 was more than 2000 µM in data set [8]; more than 2000 µM in [9]; more than 2000 µM in data set [10]; 347 ± 25.5 µM in [1]; more than 2000 µM in data set [12]; 415 ± 4 µM in data set [2]. Besides, the IC50 in [3] was 406 ± 86.8 µM; in [4], 1410 ± 155 µM; in data set [5], 199 ± 45.6 µM; in [6], 418 ± 100 µM; in [7], 610 ± 54 µM; in data set [13] it was 2000 µM. Further, the IC50 was 500 µM in [14] and more than 2000 µM in data set [15]. In data set [11], the “stability in 1% DMSO-d6/D2O solution” value is recorded as “stable”. Besides, the “inhibition of S. aureus growth” value in [13] (complex at 2 mM) came out at 50%. Besides, the “MIC100 (MIC) P. aeruginosa” value in [14] (growth fully inhibited (100%)) was 1000 µM. In [15] (concentration not given), the “partial inhibition of E. coli growth” value was 9%.
`O=C([O-])c1ccccn1.O=C([O-])c1ccccn1.O=C([O-])c1ccccn1.[Ga+3]` [[Ga(Pic)3]]: the “stability constant logβ031” value in [16] is given as 20.86(2).
Regarding `CCN1CCN(C(=O)N[C@@H](C(=O)N[C@@H]2C(=O)N3[C@@H]2SC(C)(C)[C@@H]3C(=O)O)c2ccccc2)C(=O)C1=O` [piperacillin], the MIC in [14] (Pseudomonas aeruginosa, CCM1959, positive control, read-out: MIC100 for P. aeruginosa) stood at 5.81 µM (≈ 3.01 µg/mL).
With `O=C([O-])c1cccc(C(=O)[O-])n1.O=C([O-])c1cccc(C(=O)[O-])n1.[Ga+3].[OH-]` [[Ga(Dpic)2(OH)]^2−], in data set [16], the “stability constant logβ-121” value is given as 11.08(4).
Regarding `O=[N+]([O-])[O-].O=[N+]([O-])[O-].O=[N+]([O-])[O-].[Ga+3]` [Ga(NO3)3, gallium(III) nitrate], the IC50 in data set [8], in data set [9], in data set [10], in data set [12], in data set [13] and in data set [14] was more than 500 µM each time. Further, the IC50 in data set [15] is more than 500 µM.
Regarding `O=C([O-])c1cccc(C(=O)[O-])n1.O=C([O-])c1cccc(C(=O)[O-])n1.[Ga+3]` [[Ga(Dpic)2]^−], in data set [16], the “stability constant logβ021” value was 15.42(9).
Regarding `CO[C@@]1(NC(=O)Cc2cccs2)C(=O)N2C(C(=O)O)=C(COC(N)=O)CS[C@@H]21` [cefoxitin], the MIC in data set [13] (Staphylococcus aureus, CCM3953, positive control, read-out: MIC100 for S. aureus) turned out to be 0.74 µM (≈ 0.316 µg/mL).
As to `O=C([O-])c1ccccn1.O=C([O-])c1ccccn1.[Ga+3]` [[Ga(Pic)2]^+], in data set [16], the “stability constant logβ021” value is given as 16.23(6).
